These results are taken from PubChem BioAssay AID330 (DTP/NCI, 2004).

Several values for one entry are separate records, joined by “and”; a condition that tells them apart may be missing. Identical values can stand only once. Inconclusive results and toxic doses are left out.

In this assay the test system is P388 leukemia ip, CD2F1 mice, survival T/C. Kind of assay: NCI In Vivo Anticancer Drug Screen. Data for tumor model P388 Leukemia (intraperitoneal) in CD2F1 (CDF1) mice. The conditions noted are these: endpoint: median survival time, higher = longer survival. A digest of the protocol: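 Mice carrying the transplanted tumor received test compound or vehicle. Survival was recorded in each group, and the value is the treated-group measurement divided by that of the vehicle-treated control group.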

Where [1] appears, read: dose: 12.5 mg/kg/injection, schedule: Q01DX009 (ip), vehicle: Klucel (hydroxypropylcellulose) (HPC).
[2] abbreviates: dose: 25.0 mg/kg/injection, schedule: Q01DX009 (ip), vehicle: Klucel (hydroxypropylcellulose) (HPC).
The mark [3] stands for this setting: dose: 50.0 mg/kg/injection, schedule: Q01DX009 (ip), vehicle: Klucel (hydroxypropylcellulose) (HPC).
The mark [4] stands for this setting: dose: 60.0 mg/kg/injection, schedule: Q01DX005 (ip), vehicle: saline with Tween-80.
The mark [5] stands for this setting: dose: 120.0 mg/kg/injection, schedule: Q01DX005 (ip), vehicle: saline with Tween-80.
Where [6] appears, read: dose: 240.0 mg/kg/injection, schedule: Q01DX005 (ip), vehicle: saline with Tween-80.
Setting [7] is: dose: 12.5 mg/kg/injection, schedule: Q01DX009 (ip), vehicle: water.
Where [8] appears, read: dose: 25.0 mg/kg/injection, schedule: Q01DX009 (ip), vehicle: water.
The mark [9] stands for this setting: dose: 50.0 mg/kg/injection, schedule: Q01DX009 (ip), vehicle: water.
The mark [10] stands for this setting: dose: 100.0 mg/kg/injection, schedule: Q01DX009 (ip), vehicle: Klucel (hydroxypropylcellulose) (HPC).
[11] abbreviates: dose: 50.0 mg/kg/injection, schedule: Q01DX005 (ip), vehicle: saline.
The mark [12] stands for this setting: dose: 100.0 mg/kg/injection, schedule: Q01DX005 (ip), vehicle: saline.
The mark [13] stands for this setting: dose: 200.0 mg/kg/injection, schedule: Q01DX005 (ip), vehicle: saline.
Setting [14] is: dose: 100.0 mg/kg/injection, schedule: Q01DX001 (ip), vehicle: Klucel (hydroxypropylcellulose) (HPC).
Where [15] appears, read: dose: 200.0 mg/kg/injection, schedule: Q01DX001 (ip), vehicle: Klucel (hydroxypropylcellulose) (HPC).
The mark [16] stands for this setting: dose: 400.0 mg/kg/injection, schedule: Q01DX001 (ip), vehicle: Klucel (hydroxypropylcellulose) (HPC).
The mark [17] stands for this setting: dose: 50.0 mg/kg/injection, schedule: Q01DX009 (ip), vehicle: saline with Tween-80.
[18] abbreviates: dose: 100.0 mg/kg/injection, schedule: Q01DX009 (ip), vehicle: saline with Tween-80.
Setting [19] is: dose: 200.0 mg/kg/injection, schedule: Q01DX009 (ip), vehicle: Klucel (hydroxypropylcellulose) (HPC).

As to `COc1cc2c(c(OC)c1OC)-c1ccc(SCc3ccccc3)c(=O)cc1[C@@H](NC(C)=O)CC2`, the T/C was 105 % of control and 111 % of control and 122 % of control (dose: 1.56 mg/kg/injection, schedule: Q01DX009 (ip), vehicle: Klucel (hydroxypropylcellulose) (HPC)); 96 % of control (dose: 1.56 mg/kg/injection, schedule: Q01DX009 (ip), vehicle: saline with Tween-80); 105 % of control and 123 % of control (dose: 3.12 mg/kg/injection, schedule: Q01DX009 (ip), vehicle: Klucel (hydroxypropylcellulose) (HPC)); 105 % of control (dose: 3.12 mg/kg/injection, schedule: Q01DX009 (ip), vehicle: saline with Tween-80); 105 % of control (dose: 6.25 mg/kg/injection, schedule: Q01DX009 (ip), vehicle: saline with Tween-80); 169 % of control and 214 % of control under setting [1]. Under setting [2], the T/C is 92 % of control.

On to `Cc1c(N=Nc2ccc(Br)cc2)c(-c2ccccc2)nn1C(N)=S`, for which the T/C is, setting by setting: (dose: 50.0 mg/kg/injection, schedule: Q01DX005 (ip), vehicle: Klucel (hydroxypropylcellulose) (HPC)) 102 % of control; (dose: 100.0 mg/kg/injection, schedule: Q01DX005 (ip), vehicle: Klucel (hydroxypropylcellulose) (HPC)) 105 % of control.

Turning to `Clc1ccc(-c2csc3cccc[n+]23)cc1`, the T/C under setting [1] was 103 % of control, the T/C under setting [2] was 100 % of control and the T/C under setting [3] is 103 % of control.

Regarding `Cc1cccc(N2C(c3ccccc3)c3ccc(C)cc3NS2=O)c1` (configuration not stated), the T/C runs as follows: under setting [4], 97 % of control; under setting [5], 90 % of control; under setting [6], 95 % of control.

Regarding `COc1cc2ccc3cnccc3c2cc1OC`, the T/C is 99 % of control under setting [7]; 99 % of control under setting [8]; 103 % of control under setting [9]; 99 % of control (dose: 100.0 mg/kg/injection, schedule: Q01DX009 (ip), vehicle: water); 113 % of control (dose: 200.0 mg/kg/injection, schedule: Q01DX009 (ip), vehicle: water).

Turning to `CCC1(O)CC2C3C(C(=O)OC)=C4Nc5ccccc5C45CCN(C31)C25` (configuration not stated), the T/C by setting is: (dose: 1.0 mg/kg/injection, schedule: Q01DX001 (ip), vehicle: water) 100 % of control; (dose: 2.0 mg/kg/injection, schedule: Q01DX001 (ip), vehicle: water) 100 % of control; (dose: 4.0 mg/kg/injection, schedule: Q01DX001 (ip), vehicle: water) 101 % of control; (dose: 8.0 mg/kg/injection, schedule: Q01DX001 (ip), vehicle: water) 92 % of control; (dose: 16.0 mg/kg/injection, schedule: Q01DX001 (ip), vehicle: water) 95 % of control; (dose: 32.0 mg/kg/injection, schedule: Q01DX001 (ip), vehicle: water) 99 % of control.

For `O=S(=O)(OI(O)c1ccccc1)c1ccc(Cl)cc1`, the T/C was 101 % of control under setting [7]; 105 % of control under setting [8]; 109 % of control and 114 % of control under setting [9].

As for `O=C1C2C3C=CC(C3)C2C(=O)N1CNc1ccc2nc(SC3CCCC3)sc2c1` (configuration not stated), the T/C under setting [3] was 91 % of control and the T/C under setting [10] was 88 % of control.

For `CC(=O)N1C2C3CCC(C)(OC3(C)C)C21` (configuration not stated), the T/C reads like this: under setting [11], 107 % of control; under setting [12], 102 % of control; under setting [13], 110 % of control.

In the case of `CCc1nnc2cccc(Cl)n12`, the T/C by setting is: under setting [14], 100 % of control; under setting [15], 109 % of control; under setting [16], 100 % of control.

For `CC[N]1c2cc(C(C)(C)C)cc(C(C)(C)C)c2[O][Sb]1([c]1ccccc1)([c]1ccccc1)[c]1ccccc1`, the T/C is, setting by setting: under setting [17], 98 % of control; under setting [18], 100 % of control; (dose: 200.0 mg/kg/injection, schedule: Q01DX009 (ip), vehicle: saline with Tween-80) 98 % of control.

Take `CN1CCN(C)C(N2CCOCC2)C(C)(C)C1` (configuration not stated): the T/C reads like this: under setting [11], 93 % of control; under setting [12], 94 % of control; under setting [13], 95 % of control.

For the compound `CCCCN=C(c1ccc(O)cc1)c1ccc(OC)cc1O`, the T/C is 108 % of control under setting [4], 92 % of control under setting [5] and 99 % of control under setting [6].

Turning to `CCCCCCCCCCCC[C@@H](O)[C@H]1CC[C@H]([C@H](O)CCCC[C@H](O)CCCCC[C@@H](O)CC2=C[C@H](C)OC2=O)O1`, the T/C is, setting by setting: (dose: 0.75 mg/kg/injection, schedule: Q01DX009 (ip), vehicle: other) 113 % of control; (dose: 1.5 mg/kg/injection, schedule: Q01DX009 (ip), vehicle: other) 105 % of control.

Consider `CC1(C)CC(=O)C(CSCS)=C(O)C1`, for which the T/C reads like this: under setting [14], 114 % of control; under setting [15], 99 % of control; under setting [16], 92 % of control.

As for `CC/C(=C(/CC)c1ccc(OCC(=O)N/N=C2/C=C3CCC4C(CCC5(C)C(O)CCC45)C3(C)CC2)cc1)c1ccc(OCC(=O)N/N=C2\C=C3CCC4C(CCC5(C)C(O)CCC45)C3(C)CC2)cc1` (configuration not stated), the T/C is 95 % of control (dose: 50.0 mg/kg/injection, schedule: Q01DX001 (ip), vehicle: Klucel (hydroxypropylcellulose) (HPC)) and 87 % of control under setting [14].

As for `C=CCSc1nc2ccc(NCN3C(=O)c4ccccc4C3=O)cc2s1`, the T/C runs as follows: under setting [3], 96 % of control; under setting [10], 96 % of control; under setting [19], 98 % of control.

Regarding `CC1(C)NC(=O)[C@]2(C[C@@H](OC(=O)c3ccccc3)C=C2C=O)O1`, the T/C was 109 % of control (dose: 25.0 mg/kg/injection, schedule: Q01DX005 (ip), vehicle: saline with Tween-80) and 96 % of control (dose: 50.0 mg/kg/injection, schedule: Q01DX005 (ip), vehicle: saline with Tween-80).

In the case of `Cc1ccccc1NC(=O)Cc1ccccc1`, the T/C reads like this: (dose: 6.25 mg/kg/injection, schedule: Q01DX009 (ip), vehicle: Klucel (hydroxypropylcellulose) (HPC)) 99 % of control; under setting [1], 104 % of control; under setting [2], 94 % of control; under setting [3], 108 % of control; under setting [10], 95 % of control.

Regarding `Cc1cc(=O)n2[nH]cnc2n1`, the T/C was 97 % of control under setting [1]; 109 % of control and 110 % of control and 98 % of control under setting [2]; 99 % of control and 107 % of control and 109 % of control under setting [19]; 104 % of control and 119 % of control (dose: 400.0 mg/kg/injection, schedule: Q01DX009 (ip), vehicle: Klucel (hydroxypropylcellulose) (HPC)).

As for `CC(C)C(Br)C(N)=O` (configuration not stated), the T/C was 100 % of control (dose: 100.0 mg/kg/injection, schedule: Q04DX002 (ip), vehicle: Klucel (hydroxypropylcellulose) (HPC)); 103 % of control (dose: 200.0 mg/kg/injection, schedule: Q04DX002 (ip), vehicle: Klucel (hydroxypropylcellulose) (HPC)); 105 % of control (dose: 400.0 mg/kg/injection, schedule: Q04DX002 (ip), vehicle: Klucel (hydroxypropylcellulose) (HPC)).

For `Cc1ccc(NC(=O)Oc2ccc(Br)cc2Br)c([N+](=O)[O-])c1`, the T/C reads like this: under setting [17], 115 % of control; (dose: 50.0 mg/kg/injection, schedule: Q04DX003 (ip), vehicle: saline with Tween-80) 115 % of control; under setting [18], 115 % of control; (dose: 100.0 mg/kg/injection, schedule: Q04DX003 (ip), vehicle: saline with Tween-80) 96 % of control; (dose: 200.0 mg/kg/injection, schedule: Q04DX003 (ip), vehicle: saline with Tween-80) 99 % of control; (dose: 400.0 mg/kg/injection, schedule: Q04DX003 (ip), vehicle: saline with Tween-80) 115 % of control.

Take `O=C(O)CCSSCCCCS(=O)O`: the T/C was 114 % of control under setting [11], 114 % of control under setting [12] and 100 % of control under setting [13].

On to `Cc1oc2ccccc2c(=O)c1Cn1cnc2ccc([N+](=O)[O-])cc21`, for which the T/C is 102 % of control under setting [4], 93 % of control under setting [5] and 91 % of control under setting [6].
